Measurements from patent publication US5691382A, “Inhibition of TNF production with matrix metaloproteinase inhibitors” (British Biotech Pharmaceuticals Limited, priority 1992, dated 1997).

system: TNF α; assay: inhibition of endotoxin (LPS) induced TNF production in vivo in anaesthetised rats; parameters: species or system Male CD rats; conditions: rat, 10 mg.kg^-1 intraperitoneally, 1 hour prior to LPS
Procedure: Test compounds were assessed for their ability to inhibit release of endotoxin induced TNF production in vivo.
(§1) Male CD rats (Charles River, UK) weighing between 300 g-400 g were anaesthetised with an intra-peritoneal injection of a mixture of 62.5 mg.kg^-1 thiopental and 22.5 mg.kg^-1 sodium pentobarbitone (Thiopental, Sigma Chemical Co., UK; Sodium pentobarbitone (Sagatal), May and Baker., UK). The trachea was exposed and cannulated to allow spontaneous respiration through a patent airway. The left jugular vein was exposed and cannulated for the administration of LPS. The right femoral artery was exposed and cannulated for withdrawal of blood samples. Blood samples (1 ml) were removed 5 minutes prior to bolus administration of either LPS (E. coil serotype 0111:b4, Difco Laboratories, USA) or saline (NaCL 0.9% w/v) and at intervals of 1 hour and 2 hours after LPS. Removed blood was replaced with equal amounts of saline.
The peak of TNF release was at the 1 hour timepoint. TNF levels were expressed in units/ml where 1 unit is the equivalent of 1 pg of mouse TNF α.
(§2) Rat serum TNF levels were measured using a mouse TNF α reference standard. The commercial ELISA kits were from Genzyme.
Test compounds were administered intraperitoneally to anaesthetised rats at a dose of 10 mg.kg^-1, 1 hour prior to LPS administration.
The results are expressed as the % inhibition of maximal TNF elevation relative to control: […]

| SMILES | % Inhibition of Maximal TNF Elevation relative to control |
| --- | --- |
| CNC(=O)[C@H](Cc1ccc(OC)cc1)NC(=O)[C@H](CC(C)C)[C@H](C)C(=O)NO [Compound 1, 3R-(2-(4-methoxyphenyl)-1S-methylcarbamoyl-ethylcarbamoyl)-2S,5-dimethyl-hexanohydroxamic acid] | 0% |
| CNC(=O)[C@H](Cc1ccc(NC(C)=O)cc1)NC(=O)[C@@H](CC(=O)NO)CC(C)C [Compound 23, 3R-(2-(4-acetamidophenyl)-1S-methylcarbamoyl-ethylcarbamoyl)-5-methyl-hexanohydroxamic acid] | 35% |
| CNC(=O)[C@H](Cc1ccc(OC)cc1)NC(=O)[C@@H](CC(=O)NO)CC(C)C [Compound 70, 3R-(2(4-methoxyphenyl)-1S-methylcarbamoyl-ethylcarbamoyl)-5-methyl-hexanohydroxamic acid] | 37% |
| CC(C)C[C@H](CC(=O)NO)C(=O)N[C@@H](Cc1ccccc1)C(=O)NCCCN1CCCC1=O [Compound 74, 3R-(2-phenyl-1S-[2-oxo-pyrolid-1-yl]propylcarbamoyl-ethylcarbamoyl)-5-methyl-hexanohydroxamic acid] | 28% |
| CNC(=O)[C@H](Cc1ccccc1)NC(=O)[C@H](CCc1ccccc1)CC(=O)NO [Compound 87, 3R-(2-phenyl-1S-methylcarbamoyl-ethylcarbamoyl)-5-phenyl-pentanohydroxamicacid] | 4% |
| CNC(=O)[C@@H](NC(=O)[C@@H](CC(=O)NO)CC(C)C)C(C)(C)C [Compound 88, 3R-(2,2-dimethyl-1S-methylcarbamoyl-propylcarbamoyl)-5-methyl-hexanohydroxamic acid] | 66% |
| CCOC(=O)CNC(=O)[C@H](CC(C)C)NC(=O)[C@H](CC(C)C)[C@H](CCCCN1C(=O)c2ccccc2C1=O)C(=O)NO [Compound 93, 2S-(4-phthalimido-butyl)-3R-(3-methyl-1S-ethoxycarbonylmethylcarbamoyl-butylcarbamoyl)-5-methyl-hexanohydroxamic acid] | 43% |
| CC(C)C[C@H](CC(=O)NO)C(=O)N[C@@H](Cc1ccccc1)C(=O)NCc1cccnc1 [Compound 98, 3R-(2-phenyl-1S-[pyrid-3-ylmethylcarbamoyl]-ethylcarbamoyl)-5-methyl-hexanohydroxamic acid] | 28% |
| CNC(=O)[C@H](Cc1ccccc1)NC(=O)[C@H](CC(C)C)[C@H](CS(=O)(=O)c1cccs1)C(=O)NO [Compound 99, 2S-(thien-2-ylsulfonylmethyl)-3R-(2-phenyl-1S-methylcarbamoyl-ethylcarbamoyl)-5-methyl-hexanohydroxamic acid] | 55% |

system: TNFα release from human monocytic cell line, U937; assay: inhibition of TNFα release from PMA-stimulated human monocytic cell line U937 (18 h, ELISA); format: cell-based; conditions: U-937, PMA 50 nM, U937 cells, 18 hours at 37° C., reported by Group A/B/C, read-out: IC50 (concentration which inhibits the release of TNFα by 50% relative to the control culture)
Procedure: Metalloproteinase inhibitors can prevent the release of TNF from PMA-stimulated human monocytic cell line U937.
The ability of representative compounds, which are inhibitors of metalloproteinases, to inhibit the release of TNF was investigated. The assay is based on the ability of phorbol myristate acetate (PMA) to stimulate the release of TNFα from a human monocytic cell line, U937.
U937 cells cultured in RPMI 1640 medium +5% foetal calf serum were centrifuged at 1000×g for 5 minutes and then resuspended in medium at 2×10^6 /ml. 1 ml of cell suspension was aliquoted into individual wells of 24-well plates. Test compounds were dissolved in dimethyl sulphoxide (DMSO) at a stock concentration of 100 mM, then diluted to 50×the final required concentration with RPMI 1640 medium. 20 μl of the diluted compounds were added to U937 cells in duplicate wells. TNFα release was stimulated by addition of PMA to the cells at a final concentration of 50 nM. Appropriate control cultures were set up in duplicate. The plates were incubated for 18 hours at 37° C., 5% CO2, then centrifuged at 1000 ×g for 5 minutes. A specific ELISA for TNFα obtained from British Bio-technology Products Limited, Abingdon, England was used to measure TNFα levels in the culture supernatants according to the protocol supplied.
The average concentration of test compound which inhibits the release of TNFα by 50% relative to the control culture was assessed as greater than 90 μM, in the range 10 μM-90 μM, or less than 10 μM.

| SMILES | IC50 |
| --- | --- |
| CNC(=O)[C@H](Cc1ccc(OC)cc1)NC(=O)[C@H](CC(C)C)[C@H](C)C(=O)NO [Compound 1, 3R-(2-(4-methoxyphenyl)-1S-methylcarbamoyl-ethylcarbamoyl)-2S,5-dimethyl-hexanohydroxamic acid] | < 10 µM |
| CNC(=O)[C@H](Cc1ccccc1)NC(=O)[C@H](CC(C)C)[C@H](CSc1ccccc1)C(=O)NO [Compound 2, 2S-(phenylsulfanylmethyl)-3R-(2-phenyl-1S-methylcarbamoyl-ethylcarbamoyl)-5-methyl-hexanohydroxamic acid] | < 10 µM |
| CNC(=O)[C@H](Cc1ccccc1)NC(=O)[C@H](CC(C)C)[C@H](CSc1cccs1)C(=O)NO [Compound 3, 2S-(thien-2-ylsulfanylmethyl)-3R-(2-phenyl-1S-methylcarbamoyl-ethylcarbamoyl)-5-methyl-hexanohydroxamic acid] | < 10 µM |
| CNC(=O)[C@H](Cc1ccc(OC)cc1)NC(=O)[C@@H](CC(C)C)[C@H](C)C(=O)NO [Compound 69, 3S-(2(4-methoxyphenyl)-1S-methylcarbamoyl-ethylcarbamoyl)-2S,5-dimethyl-hexanohydroxamic acid] | 10 to 90 µM |
| CNC(=O)[C@H](Cc1ccc(OC)cc1)NC(=O)[C@@H](CC(=O)NO)CC(C)C [Compound 70, 3R-(2(4-methoxyphenyl)-1S-methylcarbamoyl-ethylcarbamoyl)-5-methyl-hexanohydroxamic acid] | 10 to 90 µM |
| COc1ccc(C[C@H](NC(=O)[C@@H](CC(=O)NO)CC(C)C)C(=O)N(C)C)cc1 [Compound 100, 3R-(2-(4-methoxyphenyl)-1S-dimethylcarbamoyl-ethylcarbamoyl)-5-methyl-hexanohydroxamic acid] | > 90 µM |
| CC(C)C[C@H](CC(=O)NO)C(=O)NC1Cc2ccccc2NC1=O (stereo partly drawn) [Compound 101, 3R-(2-oxo-1,2,3,4-tetrahydro-quinoli-3-ylcarbamoyl)-5-methyl-hexanohydroxamic acid] | > 90 µM |

system: TNF α; assay: variation: infusion of compound before LPS, inhibition of TNF elevation in vivo; parameters: species or system Male CD rats; conditions: rat, infusion 1 mg/kg/hr, 15 minutes prior to LPS 500 μg.kg^-1, for 2 hours
Procedure: as §1, §2

| SMILES | inhibition of maximal TNF elevation relative to control |
| --- | --- |
| CNC(=O)[C@H](Cc1ccc(OCC(=O)O)cc1)NC(=O)[C@H](CC(C)C)[C@H](CSc1cccs1)C(=O)NO [Compound 29, 2S-(thien-2-ylsulphanylmethyl)-3R-(2-(4-carboxymethoxyphenyl)-1S-methylcarbamoyl-ethylcarbamoyl)-5-methyl-hexanohydroxamic acid] | 60% |
